This assay has as its target T1, HCV NS3/4A protease complex, H77 strain (Hepatitis C virus genotype 1a, UniProt P27958, C1454S/C1711G).
T1 construct: recombinant HCV NS3/4A protease complex (amino acids 1027 to 1711) for these strains; His-tag (inferred from pET21b vector and Ni-NTA purification); made in house; host or cells: Escherichia coli BL21 (DE3), pET21b
The assay is described as follows: FRET peptide assay to monitor HCV NS3/4A proteolytic activity (H77 strain). It counts as biochemical. The conditions noted are these: H77 strain (1a genotype). From the text:
HCV NS3 protease complexes, derived from the BMS strain, H77 strain or J4L6S strain, were generated, as described below. These purified recombinant proteins were generated for use in a homogeneous assay (see below) to provide an indication of how effective compounds of the present disclosure would be in inhibiting HCV NS3 proteolytic activity.
The H77 and J4L6S strains were used for production of recombinant NS3/4A protease complexes. DNA encoding the recombinant HCV NS3/4A protease complex (amino acids 1027 to 1711) for these strains were manipulated as described by P. Gallinari et al. (see Gallinari P, Paolini C, Brennan D, Nardi C, Steinkuhler C, De Francesco R. Biochemistry. 38(17):5620-32, (1999)). Briefly, a three-lysine solubilizing tail was added at the 3′-end of the NS4A coding region. The cysteine in the P1 position of the NS4A-NS4B cleavage site (amino acid 1711) was changed to a glycine to avoid the proteolytic cleavage of the lysine tag. Furthermore, a cysteine to serine mutation was introduced by PCR at amino acid position 1454 to prevent the autolytic cleavage in the NS3 helicase domain. […]

T1 sequence (P27958 1027-1711 C1454S/C1711G, one chain of several): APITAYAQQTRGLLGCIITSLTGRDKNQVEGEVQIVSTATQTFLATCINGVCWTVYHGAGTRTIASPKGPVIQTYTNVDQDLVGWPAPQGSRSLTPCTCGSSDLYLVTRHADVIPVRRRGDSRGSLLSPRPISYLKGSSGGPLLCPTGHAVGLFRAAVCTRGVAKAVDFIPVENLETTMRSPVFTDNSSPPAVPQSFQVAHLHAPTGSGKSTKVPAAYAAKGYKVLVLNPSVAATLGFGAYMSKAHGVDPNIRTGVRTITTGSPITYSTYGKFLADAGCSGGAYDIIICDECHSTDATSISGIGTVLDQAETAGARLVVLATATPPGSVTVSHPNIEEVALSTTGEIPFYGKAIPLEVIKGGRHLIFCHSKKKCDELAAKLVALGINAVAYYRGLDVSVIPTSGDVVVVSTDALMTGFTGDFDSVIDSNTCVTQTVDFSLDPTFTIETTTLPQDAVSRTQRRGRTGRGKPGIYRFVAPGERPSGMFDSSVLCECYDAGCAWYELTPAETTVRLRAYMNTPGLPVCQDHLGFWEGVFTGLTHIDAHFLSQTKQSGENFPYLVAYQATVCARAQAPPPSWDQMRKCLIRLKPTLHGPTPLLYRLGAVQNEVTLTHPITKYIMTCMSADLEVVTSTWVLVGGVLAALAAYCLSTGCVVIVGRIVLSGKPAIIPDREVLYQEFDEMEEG

As for `CC(C)(C)OC(=O)N[C@H]1CN(C2CC2)CCC/C=C\C2C[C@@]2(C(=O)NS(=O)(=O)C2CC2)NC(=O)[C@@H]2C[C@@H](Oc3ccccn3)CN2C1=O` (stereo partly shown) [Compound 1], the IC50 (in general, the concentration that gives 50% inhibition) was found to be 18 nM.

Source of the values: patent US20080107625A1, “Inhibitors of Hepatitis C Virus” (Bristol-Myers Squibb Company, priority 2006, published 2008).
